In brackets after ≈: the same amount, converted by molar mass.
Legend:
Hepatitis B virus = test: Antiviral activity against HBV infected in human HepG2.2.15 cells assessed as inhibition of HBsAg level incubated for 6 days by microplate-based chemiluminescence immunoassay; assay type: functional, organism-based; details: HepG2 2.2.15, 144 h
[1] = Clearance in CD-1 mouse liver microsomes at 0.3 uM pre-incubated for 10 mins followed by NADPH addition incubated for 60 mins by LC-MS/MS analysis; assay type: ADME, Microsome; details: time 70 min, read-out: CLH
[2] = Clearance in human liver microsomes at 0.3 uM pre-incubated for 10 mins followed by NADPH addition incubated for 60 mins by LC-MS/MS analysis; assay type: ADME, Microsome; details: time 70 min, read-out: CLH
[3] = Clearance in CD-1 mouse at 2 mg/kg,iv measured at 0.083 to 24 hrs post administration by LC-MS/MS analysis; assay type: ADME, organism-based; details: in vivo, time 0.083-24 hrs
[4] = Half life in CD-1 mouse at 10 mg/kg,po measured at 0.083 to 24 hrs post administration by LC-MS/MS analysis; assay type: ADME, organism-based; details: in vivo, time 0.083-24 hrs
[5] = Cmax in CD-1 mouse at 10 mg/kg,po measured at 0.083 to 24 hrs post administration by LC-MS/MS analysis; assay type: ADME, organism-based; details: in vivo, time 0.083-24 hrs
[6] = AUCinfinity in CD-1 mouse at 10 mg/kg,po measured at 0.083 to 24 hrs post administration by LC-MS/MS analysis; assay type: ADME, organism-based; details: in vivo, time 0.083-24 hrs
[7] = Oral bioavailability in CD-1 mouse at 10 mg/kg measured at 0.083 to 24 hrs by LC-MS/MS analysis; assay type: ADME, organism-based; details: in vivo, time 0.083-24 hrs
[8] = Half life in Sprague-Dawley rat at 10 mg/kg,po measured at 0.083 to 24 hrs post administration by LC-MS/MS analysis; assay type: ADME, organism-based; details: Sprague-Dawley, in vivo, time 0.083-24 hrs
[9] = AUCinfinity in Sprague-Dawley rat at 10 mg/kg,po measured at 0.083 to 24 hrs post administration by LC-MS/MS analysis; assay type: ADME, organism-based; details: in vivo, time 0.083-24 hrs; for AUC(0-inf): Sprague-Dawley
[10] = Oral bioavailability in Sprague-Dawley rat at 10 mg/kg measured at 0.083 to 24 hrs by LC-MS/MS analysis; assay type: ADME, organism-based; details: in vivo, time 0.083-24 hrs; for bioavailability: Sprague-Dawley
[11] = Kinetic solubility of compound in PBS at pH 7.4 incubated for 24 hrs by UPLC-UV analysis; assay type: physicochemical; details: read-out: Kinetic_solubility
Cytochrome P450 1A2 = target: T1, Cytochrome P450 1A2 (Homo sapiens, UniProt P05177); test: Reversible inhibition of CYP1A2 in human liver microsomes using phenacetin as substrate pre-incubated for 30 mins followed by NADPH addition and measured after 10 mins by LC-MS/MS analysis; assay type: ADME, Microsome
T1 sequence (P05177 whole entry): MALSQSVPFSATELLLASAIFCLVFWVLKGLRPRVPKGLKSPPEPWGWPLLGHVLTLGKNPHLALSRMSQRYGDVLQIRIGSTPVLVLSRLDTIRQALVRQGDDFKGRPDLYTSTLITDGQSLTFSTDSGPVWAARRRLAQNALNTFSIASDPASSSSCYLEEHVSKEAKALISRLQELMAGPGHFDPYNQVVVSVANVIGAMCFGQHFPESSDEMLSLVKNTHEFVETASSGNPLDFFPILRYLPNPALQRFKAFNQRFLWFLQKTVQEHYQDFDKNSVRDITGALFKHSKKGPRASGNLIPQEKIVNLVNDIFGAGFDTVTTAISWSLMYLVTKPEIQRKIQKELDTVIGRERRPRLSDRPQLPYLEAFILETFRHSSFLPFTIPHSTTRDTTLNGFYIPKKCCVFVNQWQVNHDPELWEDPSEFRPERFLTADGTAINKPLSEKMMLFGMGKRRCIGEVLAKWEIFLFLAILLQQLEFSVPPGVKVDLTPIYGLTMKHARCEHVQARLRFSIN

Cytochrome P450 2C19 = Cytochrome P450 2C19 (Homo sapiens, UniProt P33261); test: Reversible inhibition of CYP2C19 in human liver microsomes using S-mephenytoin as substrate pre-incubated for 30 mins followed by NADPH addition and measured after 10 mins by LC-MS/MS analysis; assay type: ADME, Microsome
[12] = Protein binding in human plasma assessed as fraction unbound at 2 uM incubated for 6 hrs by equilibrium dialysis based LC-MS/MS analysis; assay type: ADME, cell-free
[13] = Protein binding in mouse plasma assessed as fraction unbound at 2 uM incubated for 6 hrs by equilibrium dialysis based LC-MS/MS analysis; assay type: ADME, cell-free
[14] = Apparent volume of distribution at steady state in Beagle dog at 2 mg/kg,iv measured at 0.083 to 24 hrs post administration by LC-MS/MS analysis; assay type: ADME, organism-based, Canis lupus familiaris; details: in vivo, time 0.083-24 hrs; for Vd: Beagle, read-out: Vdss(app)
[15] = Half life in Beagle dog at 2 mg/kg,iv measured at 0.083 to 24 hrs post administration by LC-MS/MS analysis; assay type: ADME, organism-based, Canis lupus familiaris; details: in vivo, time 0.083-24 hrs; for half-life: Beagle
[16] = AUCinfinity in Beagle dog at 2 mg/kg,iv measured at 0.083 to 24 hrs post administration by LC-MS/MS analysis; assay type: ADME, organism-based, Canis lupus familiaris; details: in vivo, time 0.083-24 hrs; for AUC(0-inf): Beagle
[17] = Half life in Beagle dog at 10 mg/kg,po measured at 0.083 to 24 hrs post administration by LC-MS/MS analysis; assay type: ADME, organism-based, Canis lupus familiaris; details: in vivo, time 0.083-24 hrs
[18] = Cmax in Beagle dog at 10 mg/kg,po measured at 0.083 to 24 hrs post administration by LC-MS/MS analysis; assay type: ADME, organism-based, Canis lupus familiaris; details: in vivo, time 0.083-24 hrs
[19] = AUCinfinity in Beagle dog at 10 mg/kg,po measured at 0.083 to 24 hrs post administration by LC-MS/MS analysis; assay type: ADME, organism-based, Canis lupus familiaris; details: in vivo, time 0.083-24 hrs
[20] = Oral bioavailability in Beagle dog at 10 mg/kg measured at 0.083 to 24 hrs by LC-MS/MS analysis; assay type: ADME, organism-based, Canis lupus familiaris; details: in vivo, time 0.083-24 hrs
[21] = Drug accumulation in Beagle dog plasma assessed as fold change in drug uptake at 10 mg/kg,po measured at 0.083 to 24 hrs post administration by LC-MS/MS analysis; assay type: ADME, organism-based, Canis lupus familiaris; details: in vivo, time 0.083-24 hrs
[22] = Cardiotoxicity in Langendorff-perfused New Zealand White rabbit heart assessed as decrease in left ventricular pressure at 10 uM incubated for 45 mins by ECG analysis; assay type: toxicity, tissue-based, Oryctolagus cuniculus; design: scale not given: the % may be the effect or the level left; details: 0.75 h
[23] = Cardiotoxicity in Langendorff-perfused New Zealand White rabbit heart assessed as decrease in left ventricular contractility at 10 uM incubated for 45 mins by ECG analysis; assay type: toxicity, tissue-based, Oryctolagus cuniculus; design: scale not given: the % may be the effect or the level left; details: 0.75 h

Chain of Cytochrome P450 2C19 (P33261 whole entry): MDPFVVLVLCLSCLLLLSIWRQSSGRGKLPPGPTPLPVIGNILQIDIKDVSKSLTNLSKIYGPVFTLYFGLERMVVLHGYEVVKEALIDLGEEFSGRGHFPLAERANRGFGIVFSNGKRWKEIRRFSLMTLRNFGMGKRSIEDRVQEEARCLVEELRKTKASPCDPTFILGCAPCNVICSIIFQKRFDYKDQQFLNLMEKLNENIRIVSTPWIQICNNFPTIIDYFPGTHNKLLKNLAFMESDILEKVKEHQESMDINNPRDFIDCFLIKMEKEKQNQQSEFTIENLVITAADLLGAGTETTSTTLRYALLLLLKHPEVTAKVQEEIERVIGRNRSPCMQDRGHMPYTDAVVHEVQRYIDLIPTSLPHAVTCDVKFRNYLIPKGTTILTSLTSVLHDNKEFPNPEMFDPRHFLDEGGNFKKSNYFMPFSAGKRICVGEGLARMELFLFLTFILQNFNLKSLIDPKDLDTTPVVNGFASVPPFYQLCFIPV

COCCCOc1cc2c(cc1OC)-c1cc(=O)c(C(=O)O)cn1[C@H](C(C)C)C2
EC50 (Hepatitis B virus): 0.0012 µM
microsomal CLint at 0.3 µM [1]: 5 µL/min/mg
microsomal CLint at 0.3 µM [2]: 2 µL/min/mg
clearance [3]: 26 mL/min/kg
half-life [4]: 2 h
Cmax [5]: 1840 ng/mL
AUC(0-inf) [6]: 6150 ng·h/mL
bioavailability [7]: 96%
half-life [8]: 3.4 h
AUC(0-inf) [9]: 6720 ng·h/mL
bioavailability [10]: 28%
solubility kinetic at 24 h [11]: 190 µM (≈ 76.3 µg/mL)
IC50 (Cytochrome P450 1A2): > 25 µM
IC50 (Cytochrome P450 2C19): > 25 µM
fraction unbound at 6 h, 2 µM [12]: 0.44
fraction unbound at 6 h, 2 µM [13]: 0.5
Vdss(app) ([14]; iv, 2 mg/kg): 1.7 L/kg
t1/2 ([15]; iv, 2 mg/kg): 1.5 h
AUC ([16]; iv, 2 mg/kg): 2362 ng·h/mL
half-life [17]: 1.6 h
Cmax [18]: 4030 ng/mL
AUC(0-inf) [19]: 13000 ng·h/mL
bioavailability [20]: 110%
fold change (FC) [21]: 0.6
Activity [22]: 20%
Activity [23]: 20%

COCCCOc1cc2c(nc1OC)-c1cc(=O)c(C(=O)O)cn1[C@H](C(C)C)C2
EC50 (Hepatitis B virus): 0.001 µM
microsomal CLint at 0.3 µM [1]: 2 µL/min/mg
microsomal CLint at 0.3 µM [2]: 3 µL/min/mg
clearance [3]: 30 mL/min/kg
half-life [4]: 5.8 h
Cmax [5]: 1110 ng/mL
AUC(0-inf) [6]: 5680 ng·h/mL
bioavailability [7]: 99%
half-life [8]: 3.4 h
AUC(0-inf) [9]: 14100 ng·h/mL
bioavailability [10]: 80%
solubility kinetic at 24 h [11]: > 200 µM
IC50 (Cytochrome P450 1A2): > 25 µM
IC50 (Cytochrome P450 2C19): > 25 µM
fraction unbound at 6 h, 2 µM [12]: 0.5
fraction unbound at 6 h, 2 µM [13]: 0.46
Vd [14]: 0.8 L/kg
half-life [15]: 2.3 h
AUC(0-inf) [16]: 6410 ng·h/mL
half-life [17]: 2.8 h
Cmax [18]: 6740 ng/mL
AUC(0-inf) [19]: 31500 ng·h/mL
bioavailability [20]: 98%
fold change (FC) [21]: 7.5
Activity [22]: 20%
Activity [23]: Non-Toxic

COCCCOc1cc2c(cc1Cl)-c1cc(=O)c(C(=O)O)cn1[C@H](C(C)C)CO2
EC50 (Hepatitis B virus): 0.012 µM
microsomal CLint at 0.3 µM [1]: 5 µL/min/mg
microsomal CLint at 0.3 µM [2]: 5 µL/min/mg
clearance [3]: 20 mL/min/kg
half-life [4]: 1.2 h
Cmax [5]: 702 ng/mL
AUC(0-inf) [6]: 5880 ng·h/mL
bioavailability [7]: 63%
half-life [8]: 2.8 h
AUC ([9]; po, 10 mg/kg): 10300 ng·h/mL
F ([10]; po, 10 mg/kg): 14%
solubility kinetic at 24 h [11]: > 200 µM
IC50 (Cytochrome P450 1A2): > 25 µM
IC50 (Cytochrome P450 2C19): > 25 µM
fraction unbound at 6 h, 2 µM [12]: 0.14
fraction unbound at 6 h, 2 µM [13]: 0.2
Vd [14]: 1 L/kg
half-life [15]: 1.4 h
AUC(0-inf) [16]: 3370 ng·h/mL
half-life [17]: 1.7 h
Cmax [18]: 3130 ng/mL
AUC(0-inf) [19]: 10700 ng·h/mL
bioavailability [20]: 63%
fold change (FC) [21]: < 0.1
Activity [22]: 20%
Activity [23]: 20%
